Test results published in US20220265762A1, “COMPOSITION, COMPRISING TMEM176B OR AN EXPRESSION OR ACTIVITY REGULATOR THEREOF AS AN ACTIVE INGREDIENT, FOR PREVENTION OR TREATMENT OF DEGENERATIVE BRAIN DISEASE” (AMYLOID SOLUTION INC., priority 2019, published 2022).

Legend:
[1] = test system: astrocyte; test: Phagocytic activity of astrocyte on FAM-labeled amyloid-beta oligomer after TMEM176B inhibitor treatment; type: cell-based; settings: inhibitor at 0, 3.703, 11.11, 33.33, 100 μM, FIG. 1
Protocol: In detail, BAYK8644 (by Merck) was used as a TMEM176B inhibitor, a method of confirming phagocytic activity of an astrocyte (by Abm) after treatment with the inhibitor was performed as follows. The astrocyte was cultured in a 96-well black cell culture plate (by SPL) using a PriGrow IV medium containing 10% FBS (by GIBCO), penicillin/streptomycin (by Thermo), human EGF 10 ng/mL (by Abm), and L-glutamine (by Abm), and incubation thereof was started at a density of 50,000 cells per well. Here, the TMEM176B inhibitor was treated at concentrations of 0 μM, 3.703 μM, 11.11 μM, 33.33 μM, and 100 μM, and the then the cells were stabilized by incubation at 37° C. in a 5% CO2 incubator for 18 to 24 hours. Fluorescent FAM-labeled amyloid-beta was dissolved in cold PBS (by Anaspec) at a concentration of 5 μM, blocked from light, and stored in a refrigerator at 4° C. for 24 hours to prepare amyloid-beta in oligomers. […] After 1 minute, trypan blue was removed by suction, and the phagocytized oligomeric amyloid-beta was measured at an excitation wavelength of 485 nm/emission wavelength of 535 nm using a microplate reader capable of measuring fluorescence. […] After the incubation was completed, a washing process was performed thereon once with PBS, and the stained nuclei were measured at an excitation wavelength of 360 nm/emission wavelength of 465 nm.

[2] = test system: astrocyte; test: Phagocytic activity of astrocyte with overexpressed TMEM176B on FAM-labeled amyloid-beta oligomer; type: cell-based; settings: virus-inoculated astrocytes treated with inhibitor at 0, 10, 50 μM; FIG. 3
Protocol: A TMEM176B-infected astrocyte and a normal astrocyte were separately cultured into wells of a 96-well black cell culture plate (by SPL) at a density of 50,000 cells per well, the plate using PriGrow IV medium containing 10% FBS (by GIBCO), penicillin/streptomycin (by Thermo), 10 ng/mL of human EGF (by Abm), and L-glutamine (by Abm). Here, only the astrocytes inoculated with the TMEM176B-adeno-associated virus were treated with the TMEM176B inhibitor at concentrations of 0 μM, 10 μM, and 50 μM, and then stabilized by incubation at 37° C. in a 5% CO2 incubator for 18 to 24 hours. FAM-labeled amyloid-beta (by Anaspec) was dissolved in cold PBS at a concentration of 5 μM, blocked from light, and stored in a refrigerator at 4° C. for 24 hours to prepare an oligomer. […] After 1 minute, trypan blue was removed, and the phagocytized oligomeric amyloid-beta was measured at an excitation wavelength of 485 nm/emission wavelength of 535 nm using a microplate reader capable of measuring fluorescence. […] After the incubation was completed, a washing process was performed thereon once with PBS, and the stained nuclei were measured at an excitation wavelength of 360 nm/emission wavelength of 465 nm using a microplate reader capable of measuring fluorescence.

`COC(=O)C1=C(C)NC(C)=C([N+](=O)[O-])C1c1ccccc1C(F)(F)F` (centres unmarked) [TMEM176B inhibitor, BAYK8644] was tested, and the “phagocytosis function on the amyloid-beta oligomer” value [1] was “decreased the phagocytosis function” and the “phagocytosis of oligomeric amyloid-beta” value [2] was “decreased in a concentration-dependent manner”.
